Data published in US7863325B2, “Crystalline genistein sodium salt dihydrate” (Axcentua Pharmaceuticals AB, priority 2008, dated 2011).
In brackets after ≈: the same amount, converted by molar mass. Like-named read-outs stand apart in the source and are kept apart here.

How the values were obtained:
[1] = SuperSol 1000 kinetic and equilibrium solubility assay
[2] = cited from earlier work
[3] = Aqueous solubility (slurry shaken ca. 24 hours, filtered, HPLC); format: physicochemical
Procedure: Aqueous Solubility: Aqueous solubility was measured using the following protocol. Slurries of genistein and of crystalline genistein sodium dihydrate salt were made up in aqueous media in which pH was set at 4.5, 6.7, and 7.5, each slurry was shaken at ambient temperature for ca. 24 hours and then filtered using a 0.2 μm filter into a clean vial. The saturated solutions were then diluted and analyzed for API (genistein) content using N-Ac-DL-Methionine on a Chirobiotic T HPLC column and UV detector set at λmax=270 nm. The mobile phase was acetonitrile/water run in isocratic mode over a 30 minute period. The results are presented in Table 3, (BDL=below detection limits).

[4] = rat, mean ± SD, n = 3
Procedure: Preparation of Dosing Solutions for In-Vivo Study: Genistein and Crystalline genistein sodium salt dihydrate were stored at room temperature under desiccant and protected from light. The dosing solutions were prepared fresh from powders on the day of dosing. The dosing solution for intravenous administration (IV) was prepared at 1 mg/mL (free acid) in 50:50 DMSO:saline. The dosing solutions for intraduodenal administration (ID) were prepared at 2 mg/mL (genistein free acid) in a 0.2% sodium carboxymethyl cellulose (Na CMC) solution in water.
Animal Dosing: The pharmacokinetics of genistein was evaluated in fasted male Sprague-Dawley rats. Each animal was fitted with a jugular vein cannula (JVC) for blood sampling. Animals intended for intravenous dosing were fitted with an additional JVC for dose administration. Animals intended for intraduodenal dosing were fitted with an intraduodenal cannula (IDC) for dose administration. Surgically modified animals were housed one per cage. All animals were supplied with a commercial rodent diet (LabDiet, Certified Rodent Diet #5002) ad libitum prior to study initiation. […] Water was supplied ad libitum.
Intraduodenal dosing solutions were administered as a single bolus dose at time zero on the day of dosing. Intravenous doses were administered as a slow IV injection over approximately 1 minute. Blood sampling times began at the end of the infusion. Blood samples were collected.
Each blood sample was collected from the rats via a jugular vein cannula and placed into chilled polypropylene tubes containing sodium heparin as an anticoagulant. Samples were centrifuged at a temperature of 4° C. and at a speed of 13,000 rpm for 5 minutes. Samples were maintained chilled throughout processing. Each plasma sample was split into two aliquots. The first aliquot contained 50 μL of plasma. All remaining plasma volume was used for the second aliquot. Samples were then placed on dry ice, and stored in a freezer set to maintain −60° C. to −80° C. The total concentration of genistein in plasma samples were analyzed by LC-MS/MS after an overnight incubation with glucuronidase/arylsulfatase enzyme mixture. Pharmacokinetic parameters were calculated using the WinNonlin software.
Analysis of Plasma Samples: An LC-MS/MS analytical method for the determination of genistein in rat plasma was developed. Prior to sample analysis, a standard curve was analyzed to determine the specificity, range, and linearity of the method. Total genistein in plasma samples was determined by pre-treating all samples with β-glucuronidase/arylsulfatase enzymes and incubating prior to analysis. Incubation with the enzyme mix deconjugated any glucuronide or sulfate metabolites of genistein back to the parent form.
Acceptance Criteria for LC-MS/MS Analysis: One standard curve was dispersed throughout each analytical run. At least ⅝ of the standards must be accurate to within ±20%, except at the LLOQ where ±25% is acceptable, in order for the run to pass.
Pharmacokinetic Analysis: Individual plasma concentrations versus time data for genistein were subjected to non-compartmental analysis using the pharmacokinetic program WinNonlin v. […] Plasma concentrations below the limit of quantitation (10 ng/mL) were assigned a value of zero for PK analysis only.

[5] = Solubility in different solvents (aliquot addition until dissolution); format: physicochemical
Procedure: Solubility in different solvents: Solubility in different organic solvents was measured using the following protocol. Approximately 25 mg portions of genistein and crystalline genistein sodium dihydrate salt were placed in 48 different vials, separately. 5 volume aliquots of each solvent were added exclusively to a vial. Between each addition, the mixture was checked for dissolution and if no dissolution was apparent, the procedure was continued until dissolution was observed or when 50 volumes had been added.

SMILES: O=c1c(-c2ccc(O)cc2)coc2cc(O)cc(O)c12 [Genistein, 4′,5,7-trihydroxyisoflavone-5,7-dihydroxy-3-(4-hydroxyphenyl)-4H-1-benzopyran-4-one]
- C[Eq] (late kinetic solubility) ([1]; EtOH 100%): 13.79 mg×1^−1
- C[MSS] (early kinetic solubility) ([1]; EtOH 100%): 5.81 mg×1^−1
- ISI (Intrinsic Solubility Index) ([1]; EtOH 100%): 2.11
- ISI / late solubility profile, rating in words ([1]; EtOH 100%): good
- KSR (Kinetic Solubility ratio) ([1]; EtOH 100%): 0.42
- KSR, rating in words ([1]; EtOH 100%): acceptable
- MSS (Maximum Solubility Speed) ([1]; EtOH 100%): 23.81 mg×1^−1×min^−1
- MSS, rating in words ([1]; EtOH 100%): good
- ΔC [C, − CMSS] ([1]; EtOH 100%): 7.98 mg×1^−1
- C[Eq] (late kinetic solubility) ([1]; EtOH/dH2O 50/50 (vol/vol)): 12.87 mg×1^−1
- C[MSS] (early kinetic solubility) ([1]; EtOH/dH2O 50/50 (vol/vol)): 7.43 mg×1^−1
- ISI (Intrinsic Solubility Index) ([1]; EtOH/dH2O 50/50 (vol/vol)): 1.55
- ISI / late solubility profile, rating in words ([1]; EtOH/dH2O 50/50 (vol/vol)): good
- KSR (Kinetic Solubility ratio) ([1]; EtOH/dH2O 50/50 (vol/vol)): 0.58
- KSR, rating in words ([1]; EtOH/dH2O 50/50 (vol/vol)): acceptable
- MSS (Maximum Solubility Speed) ([1]; EtOH/dH2O 50/50 (vol/vol)): 12.18 mg×1^−1×min^−1
- MSS, rating in words ([1]; EtOH/dH2O 50/50 (vol/vol)): good
- ΔC [CEq − CMSS] ([1]; EtOH/dH2O 50/50 (vol/vol)): 5.44 mg×1^−1
- C[Eq] (late kinetic solubility) ([1]; EtOH/dH2O 75/25 (vol/vol)): 14.03 mg×1^−1
- C[MSS] (early kinetic solubility) ([1]; EtOH/dH2O 75/25 (vol/vol)): 8.52 mg×1^−1
- ISI (Intrinsic Solubility Index) ([1]; EtOH/dH2O 75/25 (vol/vol)): 1.49
- ISI / late solubility profile, rating in words ([1]; EtOH/dH2O 75/25 (vol/vol)): good
- KSR (Kinetic Solubility ratio) ([1]; EtOH/dH2O 75/25 (vol/vol)): 0.61
- KSR, rating in words ([1]; EtOH/dH2O 75/25 (vol/vol)): good
- MSS (Maximum Solubility Speed) ([1]; EtOH/dH2O 75/25 (vol/vol)): 19.67 mg×1^−1×min^−1
- MSS, rating in words ([1]; EtOH/dH2O 75/25 (vol/vol)): good
- ΔC [CEq − CMSS] ([1]; EtOH/dH2O 75/25 (vol/vol)): 5.51 mg×1^−1
- Solubility in water (in words) ([2]; background statement): practically insoluble
- Aqueous solubility (reported) ([2]; reported range): 0.01 to 0.04 µM
- Aqueous solubility ([3]; Water/slurry pH 4.5, ambient temperature): BDL
- Aqueous solubility ([3]; Water/slurry pH 6.7, ambient temperature): BDL
- Aqueous solubility ([3]; Water/slurry pH 7.5, ambient temperature): BDL
- AUClast ([4]; intraduodenal, 20 mg/kg): 414 ± 111 kg·ng·h/mL/mg
- AUClast ([4]; intravenous, 1 mg/kg): 2533 ± 638 kg·ng·h/mL/mg
- AUC∞ ([4]; intravenous, 1 mg/kg): 2584 ± 639 kg·ng·h/mL/mg
- solubility ([5]; aqueous with cosolvent or surfactant or cyclodextrin, thermodynamic from solid, Acetone/Water (50:50)): < 10.1 mg/mL
- solubility ([5]; organic solvent or mixture, thermodynamic from solid, 1,4-dioxane): < 10.3 mg/mL
- solubility ([5]; organic solvent or mixture, thermodynamic from solid, 1-Butanol (BuOH)): < 10.5 mg/mL
- solubility ([5]; organic solvent or mixture, thermodynamic from solid, 2-Propanol (IPA)): < 10.5 mg/mL
- solubility ([5]; organic solvent or mixture, thermodynamic from solid, Acetone): ~17 mg/mL (≈ 62.9 mM)
- solubility ([5]; organic solvent or mixture, thermodynamic from solid, Acetone/IPA (50:50)): 20.1 mg/mL (≈ 74.4 mM)
- solubility ([5]; organic solvent or mixture, thermodynamic from solid, Acetonitrile (MeCN)): < 10.1 mg/mL
- solubility ([5]; organic solvent or mixture, thermodynamic from solid, Cyclohexane): < 10.7 mg/mL
- solubility ([5]; organic solvent or mixture, thermodynamic from solid, Dichloromethane (DCM)): < 10.3 mg/mL
- solubility ([5]; organic solvent or mixture, thermodynamic from solid, Diisopropylether (DIPE)): < 10.6 mg/mL
- solubility ([5]; organic solvent or mixture, thermodynamic from solid, Dimethyl sulfoxide (DMSO)): ~100 mg/mL (≈ 370 mM)
- solubility ([5]; organic solvent or mixture, thermodynamic from solid, Ethanol (EtOH)): < 10.8 mg/mL
- solubility ([5]; organic solvent or mixture, thermodynamic from solid, Heptane): < 10.5 mg/mL
- solubility ([5]; organic solvent or mixture, thermodynamic from solid, Methanol (MeOH)): < 10.6 mg/mL
- solubility ([5]; organic solvent or mixture, thermodynamic from solid, Methyl acetate (MeOAc)): < 10.3 mg/mL
- solubility ([5]; organic solvent or mixture, thermodynamic from solid, Methyl isobutyl ketone (MIBK)): < 10.1 mg/mL
- solubility ([5]; organic solvent or mixture, thermodynamic from solid, Methylethyl ketone (MEK)): < 10.8 mg/mL
- solubility ([5]; organic solvent or mixture, thermodynamic from solid, N-Methyl-2-pyrrolidinone (NMP)): ~68 mg/mL (≈ 252 mM)
- solubility ([5]; organic solvent or mixture, thermodynamic from solid, N-N-dimethylformamide (DMF)): ~100 mg/mL (≈ 370 mM)
- solubility ([5]; organic solvent or mixture, thermodynamic from solid, Octanol): < 10.5 mg/mL
- solubility ([5]; organic solvent or mixture, thermodynamic from solid, Tetrahydrofuran (THF)): 26.3 mg/mL (≈ 97.3 mM)
- solubility ([5]; organic solvent or mixture, thermodynamic from solid, Toluene): < 10.1 mg/mL
- solubility ([5]; organic solvent or mixture, thermodynamic from solid, Toluene/Dioxane (50:50)): < 10.1 mg/mL
- solubility ([5]; organic solvent or mixture, thermodynamic from solid, tert-Butylmethyl ether (TBME)): < 10.5 mg/mL
